Results as given in ChEMBL document CHEMBL1201862, “PubChem BioAssay data set” (2004).
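Growth conditions: 96-well plates. Treatment: test compound, 48 hours, 5 concentrations. Analysis: linear interpolation between bracketing concentrations; unreached endpoints set to highest concentration. Abbreviation: GI50, concentration required for 50% inhibition of growth.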 Activity calls are given as the source filed them. Rule as the data show it: active = GI50 up to about 1.1 µM and inactive = higher.

Legend:
Assay in all cases: NCI tumour cell line growth inhibition, 48 h
HCT-116 = system: HCT-116
HOP-62 = system: HOP-62
HT-29 = system: HT-29
KM12 = system: KM12
OVCAR-3 = system: OVCAR-3
OVCAR-8 = system: OVCAR-8
SF-539 = system: SF-539
SK-MEL-28 = system: SK-MEL-28
SK-OV-3 = system: SK-OV-3
SNB-19 = system: SNB-19
SNB-75 = system: SNB-75
TK-10 = system: TK-10
UACC-257 = system: UACC-257
CAKI-1 = system: CAKI-1
HOP-92 = system: HOP-92
NCI-H23 = system: NCI-H23

Measured: GI50

CCCCc1c2c(nc3c1CC/C(=C\c1ccc([N+](=O)[O-])cc1)C3=O)CCCC2
inactive: HCT-116 1.8 µM | HOP-62 1.73 µM | HT-29 1.33 µM | KM12 1.7 µM | OVCAR-3 1.76 µM | OVCAR-8 1.88 µM | SF-539 1.79 µM | SK-MEL-28 1.69 µM | SK-OV-3 2.15 µM | SNB-19 1.87 µM | SNB-75 8.65 µM | TK-10 1.66 µM | UACC-257 2.3 µM

C/C(=C\CBr)CCC(Br)C(C)(C)Cl (configuration not stated)
inactive: CAKI-1 > 100 µM | HCT-116 > 100 µM | HOP-62 > 100 µM | HOP-92 > 100 µM | HT-29 > 100 µM | KM12 > 100 µM | NCI-H23 > 100 µM | OVCAR-8 > 100 µM | SF-539 > 100 µM | SK-MEL-28 > 100 µM | SK-OV-3 > 100 µM | SNB-75 > 100 µM | TK-10 > 100 µM | UACC-257 > 100 µM

COc1cc(OC(C)=O)cc2c(OC(C)=O)ccc(OC(C)=O)c12
inactive: CAKI-1 > 100 µM | HCT-116 > 100 µM | HOP-62 > 100 µM | HOP-92 17.1 µM | HT-29 > 100 µM | KM12 > 100 µM | NCI-H23 > 100 µM | OVCAR-3 > 100 µM | OVCAR-8 > 100 µM | SK-MEL-28 > 100 µM | SNB-19 > 100 µM | TK-10 > 100 µM | UACC-257 > 100 µM

COc1cc(C(=O)C/C(CCC(=O)Nc2ccc(Cl)cc2C)=N/NC(=O)C(N)=O)ccc1O
inactive: CAKI-1 > 100 µM | HCT-116 > 100 µM | HOP-62 > 100 µM | HOP-92 > 100 µM | HT-29 > 100 µM | KM12 > 100 µM | NCI-H23 > 100 µM | OVCAR-3 > 100 µM | OVCAR-8 > 100 µM | SF-539 > 100 µM | SK-OV-3 65.3 µM | SNB-19 > 100 µM | TK-10 > 100 µM | UACC-257 > 100 µM

CC(C)(C)c1cc(C#N)c2c(c1)C(=O)OC2(c1ccccc1)c1ccccc1C#N (configuration not stated)
inactive: CAKI-1 > 100 µM | HCT-116 > 100 µM | HOP-62 > 100 µM | HT-29 > 100 µM | KM12 43 µM | NCI-H23 > 100 µM | OVCAR-3 94.6 µM | OVCAR-8 > 100 µM | SF-539 > 100 µM | SK-MEL-28 > 100 µM | SK-OV-3 > 100 µM | SNB-19 > 100 µM | SNB-75 42.8 µM | TK-10 > 100 µM | UACC-257 87.7 µM

C=C1C(=O)OC2CCCCC3OC3C12 (configuration not stated)
inactive: CAKI-1 3.36 µM | HCT-116 2.99 µM | HOP-62 21.8 µM | HT-29 14.4 µM | KM12 16.6 µM | NCI-H23 14.4 µM | OVCAR-3 13.4 µM | OVCAR-8 15.9 µM | SF-539 11.7 µM | SK-MEL-28 10.9 µM | SK-OV-3 16.5 µM | SNB-19 20 µM | SNB-75 20.4 µM | TK-10 13.8 µM | UACC-257 13.4 µM

O=C(CSC(=S)N1CCCCC1)Nc1nc2c(s1)CCCC2
inactive: HCT-116 12.1 µM | HOP-62 91.4 µM | HOP-92 39.1 µM | HT-29 36.3 µM | KM12 57.4 µM | NCI-H23 36.6 µM | OVCAR-8 58.1 µM | SF-539 34 µM | SK-MEL-28 64.7 µM | SK-OV-3 > 100 µM | SNB-19 71.1 µM | SNB-75 > 100 µM | TK-10 16.4 µM | UACC-257 23.3 µM

COc1ccc(C(c2c(O)c3ccccc3n(C)c2=O)c2c(O)c3ccccc3n(C)c2=O)cc1
inactive: CAKI-1 38.2 µM | HCT-116 36 µM | HOP-92 22.6 µM | HT-29 24.3 µM | KM12 22.4 µM | NCI-H23 24.5 µM | OVCAR-3 33 µM | OVCAR-8 81.1 µM | SF-539 24.5 µM | SK-MEL-28 39.2 µM | SK-OV-3 58.3 µM | SNB-19 39.5 µM | SNB-75 16.1 µM | TK-10 38.2 µM | UACC-257 19.5 µM

O=C(c1ccc(Cl)cc1)c1ccc(OCCSCCCCCCCCCCSCCOc2ccc(C(=O)c3ccc(Cl)cc3)cc2)cc1
inactive: CAKI-1 > 100 µM | HOP-62 > 100 µM | HOP-92 > 100 µM | HT-29 > 100 µM | KM12 > 100 µM | NCI-H23 > 100 µM | OVCAR-3 > 100 µM | OVCAR-8 > 100 µM | SK-MEL-28 > 100 µM | SK-OV-3 > 100 µM | SNB-19 > 100 µM | SNB-75 > 100 µM | TK-10 > 100 µM | UACC-257 > 100 µM

COC(=O)CC1CCN(C#N)CC1CC[N+](=O)[O-] (configuration not stated)
inactive: CAKI-1 > 100 µM | HCT-116 > 100 µM | HOP-62 > 100 µM | KM12 > 100 µM | OVCAR-3 > 100 µM | OVCAR-8 > 100 µM | SF-539 > 100 µM | SK-MEL-28 > 100 µM | SK-OV-3 > 100 µM | SNB-19 > 100 µM | SNB-75 > 100 µM | TK-10 > 100 µM | UACC-257 > 100 µM

CCOC(=O)c1cccc(=O)c(C(=O)OCC)c1
inactive: CAKI-1 77.3 µM | HCT-116 28.4 µM | HOP-62 33.3 µM | HT-29 58.2 µM | KM12 3.27 µM | NCI-H23 44 µM | OVCAR-3 31.3 µM | OVCAR-8 43.4 µM | SF-539 26.1 µM | SK-MEL-28 38.6 µM | SK-OV-3 > 100 µM | SNB-75 56.9 µM | TK-10 > 100 µM | UACC-257 57.8 µM

CCCCn1c(-c2ccccc2)cs/c1=N\NC(=O)Cn1c(C)nc2ccccc21
inactive: CAKI-1 62.5 µM | HCT-116 97.3 µM | HOP-62 > 100 µM | HT-29 > 100 µM | KM12 70.8 µM | NCI-H23 8.75 µM | OVCAR-3 40.6 µM | OVCAR-8 > 100 µM | SF-539 > 100 µM | SK-OV-3 > 100 µM | SNB-19 > 100 µM | SNB-75 60.1 µM | TK-10 > 100 µM | UACC-257 34.5 µM

COc1ccc(C(=O)C(CO)Oc2ccccc2OC)cc1OC (configuration not stated)
inactive: CAKI-1 > 100 µM | HCT-116 > 100 µM | HOP-62 > 100 µM | HT-29 > 100 µM | KM12 > 100 µM | NCI-H23 > 100 µM | OVCAR-3 > 100 µM | OVCAR-8 > 100 µM | SF-539 > 100 µM | SK-MEL-28 > 100 µM | SK-OV-3 > 100 µM | SNB-19 > 100 µM | SNB-75 > 100 µM | TK-10 > 100 µM | UACC-257 > 100 µM

C=C(C)C12CC3CC(/C(=N/O)C(C1)/C3=N\O)[C@@]2(C)O (some centres not stated)
inactive: CAKI-1 > 100 µM | HCT-116 > 100 µM | HOP-62 > 100 µM | HT-29 > 100 µM | NCI-H23 > 100 µM | OVCAR-3 > 100 µM | OVCAR-8 > 100 µM | SF-539 > 100 µM | SK-MEL-28 > 100 µM | SK-OV-3 > 100 µM | SNB-19 > 100 µM | SNB-75 93.8 µM | TK-10 > 100 µM | UACC-257 > 100 µM
